Measurements published in publication PMC6881072, “The repositioning of epigenetic probes/inhibitors identifies new anti-schistosomal lead compounds and chemotherapeutic targets” (PLoS Neglected Tropical Diseases, 2019).
“Also recorded” adds a separate entry of the source. Where two headings read alike, the source gives them in different places.

Key:
[1] = tested on: miracidia; set-up: method as in Roquis et al., 2018; conditions: ref Roquis et al., 2018; cited from earlier work
[2] = tested on: adult male and female schistosome pairs; assay: In vitro adult schistosome screening (WHO/TDR motility, egg counts); assay type: cell-based, Schistosoma mansoni; conditions: for SELECTIVITY INDEX Adult Females: CC50 HepG2 / adult female EC50; for SELECTIVITY INDEX Adult Males: CC50 HepG2 / adult male EC50; for EC50: Schistosoma mansoni
Procedure: In vitro screening was replicated three times on different dates to account for any biological variation. Briefly three adult worm pairs/well (48-well tissue culture plate format) were placed into DMEM (Gibco, Paisley, UK) supplemented with 10% (v/v) FCS (Gibco, Paisley, UK), 1% (v/v) L-glutamine (Gibco, Paisley, UK) and an antibiotic mixture (150 Units/ml penicillin and 150 μg/ml streptomycin; Gibco, UK). DMSO (0.5% negative control), AUR (10 μM concentration in 0.5% DMSO; positive control) and two-fold titrations of SGC compounds (50 μM– 6.25 μM or 50 μM– 0.05 μM; in 0.5% DMSO max) were added, and together, these adult worm/compound co-cultures were incubated at 37°C for 72 h in a humidified atmosphere containing 5% CO2. Following compound incubation, WHO/TDR readouts of adult worm motility, abundance of H3K36me2 (LLY-507 and BAY-598 treated worms only) in histone extracts and egg counts/well were recorded at 72 h.

[3] = HepG2 cell cytotoxicity, MTT assay; assay type: cell-based, Human; conditions: human, HepG2 cells, read-out: CC50 (HepG2) (95% Confidence Intervals)
Procedure: (§1) Human Hepatocyte Carcinoma (HepG2) cells (Sigma Aldrich, UK) were utilized to assess SGC epigenetic probe cell cytotoxicity in the application of the MTT (3-(4,5-dimethylthiazol-2-yl)-2,5-diphenyltetrazolium bromide) assay. Briefly, cells were passaged at 70–80% confluence and seeded (20,000 cells/ 50 μL per well) in a 96-well, black-sided, clear-bottomed falcon plate (Fisher Scientific, UK) with the final plate column (8 wells) being treated as a blank (media only). Following a 24 h incubation (5% CO2, 37°C, humidified), HepG2 cells were then treated with 50 μL of pre-warmed media (37°C) containing SGC EPs/EIs at 200 μM to 0.02 μM (final concentration 100 μM, 10 μM, 1 μM, 0.1 μM and 0.01 μM). Three positive (1% Triton X-100) and negative (1% DMSO) control wells per plate were additionally included.
(§2) After addition of compounds, each plate was then incubated for a further 20 h before application of MTT for assessment of overt compound cytotoxicity using the MTT assay. The MTT assay was read using the POLARstar Omega (BMG LabTech, UK) plate reader at an absorbance of 570 nm. CC50s were calculated in GraphPad Prism.

[4] = tested on: S. mansoni schistosomula; assay: In vitro schistosomula screening (Roboworm platform), phenotype and motility; assay type: cell-based, Schistosoma mansoni; conditions: for hit / activity against schistosomula, single-point screen: hit cut-offs phenotype -0.15, motility -0.35; for SELECTIVITY INDEX Schistosomula Phenotype: CC50 HepG2 / schistosomula phenotype EC50; for EC50: Schistosoma mansoni; for SELECTIVITY INDEX Schistosomula Motility: CC50 HepG2 / schistosomula motility EC50
Procedure: Briefly, 384-well tissue culture plates (Perkin Elmer, cat 6007460), containing 20 μl of Basch medium, were wet-stamped using a Biomek NX^P liquid handling platform (Beckman Coulter, UK) with negative (0.625% dimethyl sulfoxide, DMSO) and positive controls (AUR and PZQ at 10 μM final concentration in 0.625% DMSO) as well as 37 SGC compounds (at 10 μM final concentration in 0.625% DMSO). […] To each pre-loaded well (single concentration or titration screens), a total of 100–120 mechanically transformed schistosomula (in 60 μl) were deposited via a WellMate (Thermo Scientific, UK). Schistosomula/compound co-cultures (80 μl in total) were then incubated at 37°C for 72 h in a humidified atmosphere containing 5% CO2. At 72 h, tissue culture plates (containing schistosomula/compound co-cultures) were imaged under the same conditions (37°C in a humidified atmosphere containing 5% CO2) using an ImageXpressXL high content imager (Molecular Devices, UK) with subsequent images processed for phenotype and motility as previously reported and successfully implemented by us at Aberystwyth University. Single point schistosomula screens (10 μM) were repeated two or three times whereas dose response titrations were performed once. Zˊ values obtained from all schistosomula screens ranged from 0.27–0.48 (mean = 0.40) for phenotype and 0.41–0.56 (mean = 0.48) for motility.

[5] = tested on: H3K36me2; assay: H3K36me2 detection in adult worm histone extracts; assay type: cell-based, Schistosoma mansoni; conditions: adult schistosome pairs, 72 h, vs DMSO
Procedure: LLY-507 (6.25 μM), BAY-598 (25 μM) or siSmp_000700 treated male and female worms (alongside DMSO or siLuc controls; 21 individuals per condition) were homogenized with a TissueLyser (Qiagen) and total histones extracted using the EpiQuik^TM Total Histone Extraction Kit (Epigentek). Levels of H3K36me2 in adult histone extracts were measured using the EpiQuik^TM Global Di-Methyl Histone H3-K36 Quantification Kit (Fluorimetric, Epigentek). Technical duplicates of three biological replicates of each treatment were analysed according to the manufacturer’s instructions. Fluorescent readings (530EX/590EM nm) were obtained using a POLARstar Omega (BMG Labtech, UK) microtiter plate reader. Fluorescent values of the samples were corrected by subtracting the fluorescent readings of the blank (buffer only, provided in the kit). The mean of the adjusted control values (DMSO for LLY-507/BAY-598 treated worms and siLuc for siSmp_000700 treated worms) was set at 100% H3K36me2 and the standard deviation (SD) was calculated from the normalised values.

[6] = tested on: HepG2 cells; assay: HepG2 cell cytotoxicity, MTT assay; assay type: cell-based, Human; conditions: 20 h, read-out: CC50 (HepG2) (95% Confidence Intervals)
Procedure: as §1, §2

[7] = not told; cited from earlier work
[8] = tested on: in vitro laid eggs (IVLEs) of adult worm pairs; assay: Vitellocyte and egg volume quantification of in vitro laid eggs (LSCM); assay type: cell-based, Schistosoma mansoni; conditions: 6.25 μM, 72 h, n = 10 eggs
Description: Fluorescent microscopic images (10 eggs per treatment) were captured on a Leica TCS SP8 super resolution laser confocal microscope fitted with a 63 X (water immersion) objective using the Leica Application Suite X. Green (egg autofluorescence) fluorescence was visualised with an argon or diode-pumped, solid state (DPSS) laser at 488 nm. DAPI was visualised using a 405 nm blue diode laser. The number of vitellocytes (DAPI^+ cells) and overall volume (mapped by the green autofluorescence) for individual eggs were calculated using IMARIS 7.3 software (Bitplane).

[9] = 72 h, motility, adult females, read-out: ADULT EC50 (95% Confidence Intervals) Females
[10] = 72 h, motility, adult males, read-out: ADULT EC50 (95% Confidence Intervals) Males
[11] = 72 h, two-fold titration 10 μM–0.625 μM, single replicate, approximate, read-out: SCHISTOSOMULA EC50 Phenotype

Compound	miracidia to sporocyst transformation [1]	SELECTIVITY INDEX Adult Females [2]	SELECTIVITY INDEX Adult Males [2]	EC50 [2, 9] [µM]	EC50 [2, 10] [µM]	CC50 at 20 h [3] [µM]	hit / activity against schistosomula, single-point screen ([4]; 10 μM, 72 h)	SELECTIVITY INDEX Schistosomula Phenotype [4]	EC50 [4, 11] [µM]	SELECTIVITY INDEX Schistosomula Motility [4]	also measured
COc1cc2c(cc1OCCCN1CCCC1)N=C(N)C21CCC1 [A-366, 5'-Methoxy-6'-[3-(1-pyrrolidinyl)propoxy]spiro[cyclobutane-1,3'-indol]-2'-amine]	completely block										
CCN(C(=O)CO)[C@H]1CN(C(=NC#N)Nc2cccc(OC(F)F)c2)N=C1c1ccc(Cl)c(Cl)c1 [BAY-598, (S)-N-[1-{N′-Cyano-N-[3-(difluoromethoxy)phenyl]carbamimidoyl}-3-(3,4-dichlorophenyl)-4,5-dihydro-1H-pyrazol-4-yl]-N-ethyl-2-hydroxyacetamide]		3.02	2.24	16.5	22.4	> 50	are hits against schistosomula; also recorded: both active against schistosomula	10.40	4.81		reduction in H3K36me2 ([5]; 25 μM): 23%
Cc1cn(CCN2CCN(c3ccccc3-c3cc(C#N)cc(C(=O)NCCCN4CCCC4)c3)CC2)c2ccccc12 [LLY-507, 5-(2-(4-(2-(9-methyl-7-aza-bicyclo[4.3.0]nona-1(6),2,4,8-tetraen-7-yl)-ethyl)-piperazin-1-yl)-phenyl)-3-((3-(pyrrolidin-1-yl)-propylamino)-formyl)-benzonitrile]		3.13	2.55	7.59	9.32	23.8	are hits against schistosomula; also recorded: both active against schistosomula	8.24	2.88	8.47	schistosomula phenotype by microscopic assessment ([4]; 10 μM, 72 h): phenotypes comparable to auranofin; EC50 ([4]; 72 h, two-fold titration 10 μM–0.625 μM, single replicate, approximate, read-out: SCHISTOSOMULA EC50 Motility): 2.81 µM; reduction in H3K36me2 ([5]; 6.25 μM): 25%
CCCc1cc(C)[nH]c(=O)c1CNC(=O)c1cc(-c2ccnc(N3CCN(C)CC3)c2)cc2c1cnn2C(C)C [GSK343, N-[(1,2-Dihydro-6-methyl-2-oxo-4-propyl-3-pyridinyl)methyl]-1-(1-methylethyl)-6-[2-(4-methyl-1-piperazinyl)-4-pyridinyl]-1H-indazole-4-carboxamide, N-[(6-Methyl-2-oxo-4-propyl-1,2-dihydropyridin-3-yl)methyl]-6-[2-(4-methylpiperazin-1-yl)pyridin-4-yl]-1-(propan-2-yl)-1H-indazole-4-carboxamide]	completely block	1.16	1.17	25.3	25	29.2	identified as a hit	9.24	3.17		
COc1ccccc1C(=O)Nc1cc2c(cc1N1CCCC1)n(C)c(=O)n2C [PFI-4, N-(1,3-dimethyl-2-oxo-6-(pyrrolidin-1-yl)-2,3-dihydro-1H-benzo[d]imidazol-5-yl)-2-methoxybenzamide]		3.20	3.33			> 50		19.18		19.52	EC50 ([2]; 72 h, read-out: ADULT EC50 (95% Confidence Intervals) Females): 31.2 µM; EC50 ([2]; 72 h, read-out: ADULT EC50 (95% Confidence Intervals) Males): 30.1 µM; CC50 [6]: > 100 µM; EC50 ([4]; 72 h, read-out: SCHISTOSOMULA EC50 Motility): 5.12 µM; EC50 ([4]; 72 h, read-out: SCHISTOSOMULA EC50 Phenotype): 5.22 µM
O=C(O)CCNc1cc(N2CCc3ccccc3CC2)nc(-c2ccccn2)n1 [GSK-J1]							None of these chemotype controls demonstrated anti-schistosomula activity				adult worm motility and IVLE production ([2]; 3.13 μM and 6.25 μM, 72 h, vs DMSO): did not substantially alter these phenotypes; cell permeability [7]: cell impermeable; number of vitellocytes per egg (packaging into IVLEs) [8]: did not; overall egg volume [8]: no difference
